One assay has as its target T1, p38-α (Homo sapiens, UniProt Q16539).
T1 construct: purchased Millipore
The assay is described as follows: p38 kinase assay, p38-α with peptide substrate (Caliper LabChip). It is filed as biochemical. To be noted: read-out: IC50 p38a*peptide. The protocol:
Alternatively, p38 kinase assays were performed in a reaction volume of 70 µL in a 384-well plate, at 30° for […] under the following conditions: 50 mM Hepes, pH 7.4, 10 mM MgCl2, 1 mg/ml FA Free BSA, 1 mM DTT, 10 μM ATP, 10 μM p38 peptide [Caliper Life Sciences FL-Peptide 8 (5-FAM-IPTSPITTTYFFEKKK-COOH)] and 5.7 nM p38-α (Millipore), or 14.3 nM unactivated MAPKAP kinase-2, 0.18 nM p38-α (Millipore) and 2 uM RSK peptide [Caliper Life Sciences FL-Peptide 11 (5-FAM-KKLNRTLSVA-COOH)]. Serial dilutions of compounds were added to each reaction in 700 nL DMSO. 700 nL of DMSO was added to the control wells of the reaction plate as the no inhibitor control for each inhibitor titration. The reaction was terminated by the addition of 15 μL of a 100 mM EDTA. Product formation was analyzed using the Caliper LabChip 3000. The Separation buffer contained 100 mM HEPES pH 7.5, 0.015% Brij-35, 2.5% Coating Reagent #3 (Caliper Life Sciences) and 10 mM EDTA. Calculation of the substrate product ratios are performed using the HTS Well Analyzer software provided by Caliper Life Sciences and the percent inhibition at each compound concentration is determined.

The test system of the next assay is hWB. The assay is described as follows: IC50 hWB (TNF-α release assay). To be noted: Homo sapiens. It is filed as cell-based.

The structures appear in SMILES notation.

T1 sequence (Q16539 whole entry): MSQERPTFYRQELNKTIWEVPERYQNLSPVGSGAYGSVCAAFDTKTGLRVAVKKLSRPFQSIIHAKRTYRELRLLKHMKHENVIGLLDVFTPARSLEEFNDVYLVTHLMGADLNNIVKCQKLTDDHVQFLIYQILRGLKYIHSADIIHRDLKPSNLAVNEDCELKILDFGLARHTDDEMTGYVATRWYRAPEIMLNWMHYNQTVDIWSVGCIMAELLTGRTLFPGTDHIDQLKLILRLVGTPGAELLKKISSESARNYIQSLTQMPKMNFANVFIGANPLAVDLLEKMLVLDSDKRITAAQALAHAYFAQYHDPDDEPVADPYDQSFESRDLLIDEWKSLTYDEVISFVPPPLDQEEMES

Take `Cc1nnc(CNC(=O)c2cc(C(=O)c3c(F)cc(F)cc3F)c[nH]2)s1` [Example 1, N-[(5-methyl-1,3,4-thiadiazol-2-yl)methyl]-4-(2,4,6-trifluorobenzoyl)-1-H-pyrrole-2-carboxamide]: the 50% inhibitory concentration (IC50) at p38-α was 167 nM; with hWB, 467 nM.

Regarding `CCCCc1nnc(CNC(=O)c2cc(C(=O)c3c(F)cc(F)cc3F)c[nH]2)s1` [Example 2, N-[(5-butyl-1,3,4-thiadiazol-2-yl)-methyl]-4-(2,4,6-trifluorobenzoyl)-1-H-pyrrole-2-carboxamide], the values for the IC50 at p38-α and with hWB were 441 nM and 4220 nM, respectively.

As to `CC(C)c1nnc(CNC(=O)c2cc(C(=O)c3c(F)cc(F)cc3F)c[nH]2)s1` [Example 3, N-[(5-isopropyl-1,3,4-thiadiazol-2-yl)methyl]-4-(2,4,6-trifluorobenzoyl)-1-H-pyrrole-2-carboxamide], the IC50 on p38-α was determined as 479 nM.

As to `O=C(NCc1nnc(C2CC2)s1)c1cc(C(=O)c2c(F)cc(F)cc2F)c[nH]1` [Example 4, N-[(5-cyclopropyl-1,3,4-thiadiazol-2-yl)methyl]-4-(2,4,6-trifluorobenzoyl)-1H-pyrrole-2-carboxamide], the results for the IC50 on p38-α and in the assay with hWB were 73 nM and 330 nM, respectively.

With `CC(C)(C)c1nnc(CNC(=O)c2cc(C(=O)c3c(F)cc(F)cc3F)c[nH]2)s1` [Example 5, N-[(5-tert-butyl-1,3,4-thiadiazol-2-yl)methyl]-4-(2,4,6-trifluorobenzoyl)-1H-pyrrole-2-carboxamide], the IC50 on p38-α worked out at 608 nM.

`O=C(NCc1nnc(C2CCCC2)s1)c1cc(C(=O)c2c(F)cc(F)cc2F)c[nH]1` [Example 6, N-[(5-cyclopentyl-1,3,4-thiadiazol-2-yl)methyl]-4-(2,4,6-trifluorobenzoyl)-1H-pyrrole-2-carboxamide]: the IC50 at p38-α came to 1510 nM; in the assay on hWB, 2870 nM.

As to `O=C(NCc1nnc(-c2ccccc2)s1)c1cc(C(=O)c2c(F)cc(F)cc2F)c[nH]1` [Example 7, N-[(5-phenyl-1,3,4-thiadiazol-2-yl)methyl]-4-(2,4,6-trifluorobenzoyl)-1H-pyrrole-2-carboxamide], the half-inhibitory concentration (IC50) stood at 42 nM at p38-α and 4350 nM in the assay with hWB.

As for `O=C(NCc1nnc(-c2ccc(F)cc2)s1)c1cc(C(=O)c2c(F)cc(F)cc2F)c[nH]1` [Example 8, N-{[5-(4-fluorophenyl)-1,3,4-thiadiazol-2-yl]methyl}-4-(2,4,6-trifluorobenzoyl)-1H-pyrrole-2-carboxamide], the 50% inhibitory concentration (IC50) on p38-α came out at 50 nM; in the assay on hWB, 1000 nM.

Turning to `O=C(NCc1nnc(-c2cccc(F)c2)s1)c1cc(C(=O)c2c(F)cc(F)cc2F)c[nH]1` [Example 9, N {[5-(3-fluorophenyl)-1,3,4-thiadiazol-2-yl]methyl}-4-(2,4,6-trifluorobenzoyl)-1H-pyrrole-2-carboxamide], the figures for the IC50 at p38-α and in the assay on hWB were 462 nM and 3490 nM, respectively.

For `COc1ccc(-c2nnc(CNC(=O)c3cc(C(=O)c4c(F)cc(F)cc4F)c[nH]3)s2)cc1` [Example 10, N-{[5-(4-methoxyphenyl)-1,3,4-thiadiazol-2-yl]methyl}-4-(2,4,6-trifluorobenzoyl)-1H-pyrrole-2-carboxamide], on p38-α, the concentration for half-maximal inhibition (IC50) came out at 31 nM.

As to `O=C(NCc1nnc(-c2c(F)cccc2F)s1)c1cc(C(=O)c2c(F)cc(F)cc2F)c[nH]1` [Example 11, N-{[5-(2,6-difluorophenyl)-1,3,4-tbiadiazol-2-yl]methyl}-4-(2,4,6-trifluorobenzoyl)-1H-pyrrole-2-carboxamide], the results for the IC50 at p38-α and with hWB were 276 nM and 2850 nM, respectively.

Turning to `O=C(NCc1nnc(-c2ccccn2)s1)c1cc(C(=O)c2c(F)cc(F)cc2F)c[nH]1` [Example 12, N-[(5-pyridin-2-yl-1,3,4-thiadiazol-2-yl)methyl]-4-(2,4,6-trifluorobenzoyl)-1H-pyrrole-2-carboxamide], the IC50 was determined as 66 nM on p38-α and 570 nM in the assay with hWB.

Turning to `CCOc1ncccc1-c1nnc(CNC(=O)c2cc(C(=O)c3c(F)cc(F)cc3F)c[nH]2)s1` [Example 16, N-{[5-(2-ethoxypyridin-3-yl)-1,3,4-thiadiazol-2-yl]methyl}-4-(2,4,6-trifluorobenzoyl)-1H-pyrrole-2-carboxamide], the half-maximal inhibitory concentration (IC50) at p38-α is 135 nM.

Take `COc1cccc(-c2nnc(CNC(=O)c3cc(C(=O)c4c(F)cc(F)cc4F)c[nH]3)s2)n1` [Example 18, N-{[5-(6-methoxypyridin-2-yl)-1,3,4-thiadiazol-2-yl]methyl}-4-(2,4,6-trifluorobenzoyl)-1H-pyrrole-2-carboxamide]: the IC50 on p38-α turned out to be 94 nM.

In the case of `COc1cc(-c2nnc(CNC(=O)c3cc(C(=O)c4c(F)cc(F)cc4F)c[nH]3)s2)ccn1` [Example 19, N-{[5-(2-methoxypyridin-4-yl)-1,3,4-thiadiazol-2-yl]methyl}-4-(2,4,6-trifluorobenzoyl)-1H-pyrrole-2-carboxamide], the concentration for half-maximal inhibition (IC50) on p38-α worked out at 85 nM.

Take `O=C(NCc1nnc(C2CCC2)s1)c1cc(C(=O)c2c(F)cc(F)cc2F)c[nH]1` [Example 22, N-[(5-cyclobutyl-1,3,4-thiadiazol-2-yl)methyl]-4-(2,4,6-trifluorobenzoyl)-1H-pyrrole-2-carboxamide]: on p38-α, the IC50 was 489 nM.

With `CC1(c2nnc(CNC(=O)c3cc(C(=O)c4c(F)cc(F)cc4F)c[nH]3)s2)CC1` [Example 23, N-{[5-(1-methylcyclopropyl)-1,3,4-thiadiazol-2-yl]methyl}-4-(2,4,6-trifluorobenzoyl)-1H-pyrrole-2-carboxamide], on p38-α, the 50% inhibitory concentration (IC50) turned out to be 826 nM.

Consider `CCC(C)c1nnc(CNC(=O)c2cc(C(=O)c3c(F)cc(F)cc3F)c[nH]2)s1` (centres unmarked) [Example 24, N-[(5-sec-butyl-1,3,4-thiadiazol-2-yl)methyl]-4-(2,4,6-trifluorobenzoyl)-1H-pyrrole-2-carboxamide], for which the IC50 at p38-α worked out at 1020 nM.

For `O=C(NCc1nnc(-c2cc(C(F)(F)F)n[nH]2)s1)c1cc(C(=O)c2c(F)cc(F)cc2F)c[nH]1` [Example 27, 4-(2,4,6-trifluorobenzoyl)-N-({5-[3-(trifluoromethyl)-1H-pyrazol-5-yl]-1,3,4-thiadiazol-2-yl}methyl)-1H-pyrrole-2-carboxamide], the IC50 on p38-α amounted to 1400 nM.

In the case of `O=C(NCc1nnc(-c2csnn2)s1)c1cc(C(=O)c2c(F)cc(F)cc2F)c[nH]1` [Example 30, N-{[5-(1,2,3-thiadiazol-4-yl)-1,3,4-thiadiazol-2-yl]methyl}-4-(2,4,6-trifluorobenzoyl)-1H-pyrrole-2-carboxamide], the concentration for half-maximal inhibition (IC50) at p38-α was 634 nM.

Turning to `O=C(NCc1nnc(-c2[nH]nc3c2CCC3)s1)c1cc(C(=O)c2c(F)cc(F)cc2F)c[nH]1` [Example 31, N-{[5-(2,4,5,6-tetrahydrocyclopenta[c]pyrazol-3-yl)-1,3,4-thiadiazol-2-yl]methyl}-4-(2,4,6-trifluorobenzoyl)-1H-pyrrole-2-carboxamide], the half-inhibitory concentration (IC50) on p38-α came out at 36 nM.

Take `Cc1cc(-c2nnc(CNC(=O)c3cc(C(=O)c4c(F)cc(F)cc4F)c[nH]3)s2)nn1C` [Example 33, N-{[5-(1,5-dimethyl-1H-pyrazol-3-yl)-1,3,4-thiadiazol-2-yl]methyl}-4-(2,4,6-trifluorobenzoyl)-1H-pyrrole-2-carboxamide]: at p38-α, the half-inhibitory concentration (IC50) was 35.1 nM.

With `O=C(NCc1nnc(-c2cn[nH]n2)s1)c1cc(C(=O)c2c(F)cc(F)cc2F)c[nH]1` [Example 34, N-{[5-(2H-1,2,3-triazol-4-yl)-1,3,4-thiadiazol-2-yl]methyl}-4-(2,4,6-trifluorobenzoyl)-1,1-pyrrole-2-carboxamide], on p38-α, the IC50 is 180 nM.

On to `O=C(NCc1nnc(-c2ccc(=O)[nH]c2)s1)c1cc(C(=O)c2c(F)cc(F)cc2F)c[nH]1` [Example 36, N-{[5-(6-oxo-1,6-dihydropyridin-3-yl)-1,3,4-thiadiazol-2-yl]methyl}-4-(2,4,6-trifluorobenzoyl)-1H-pyrrole-2-carboxamide], for which the half-maximal inhibitory concentration (IC50) on p38-α is 70.4 nM.

Regarding `O=C(NCc1nnc(-c2cccc(=O)[nH]2)s1)c1cc(C(=O)c2c(F)cc(F)cc2F)c[nH]1` [Example 37, N-{[5-(6-oxo-1,6-dihydropyridin-2-yl)-1,3,4-thiadiazol-2-yl]methyl}-4-(2,4,6-trifluorobenzoyl)-1H-pyrrole-2-carboxamide], the IC50 on p38-α worked out at 173 nM.

For `O=C(NCc1nnc(-c2cc[nH]c(=O)c2)s1)c1cc(C(=O)c2c(F)cc(F)cc2F)c[nH]1` [Example 38, N-{[5-(2-oxo-1,2-dihydropyridin-4-yl)-1,3,4-thiadiazol-2-yl]methyl}-4-(2,4,6-trifluorobenzoyl)-1H-pyrrole-2-carboxamide], the concentration for half-maximal inhibition (IC50) at p38-α was determined as 26.9 nM.

With `Cc1nnc(CNC(=O)c2cc(C(=O)c3ccc(F)cc3F)c[nH]2)s1` [Example 39, 4-(2,4-difluorobenzoyl)-N-[(5-methyl-1,3,4-thiadiazol-2-yl)methyl]-1H-pyrrole-2-carboxamide], at p38-α, the half-inhibitory concentration (IC50) came out at 222 nM.

On to `Cc1nnc(CNC(=O)c2cc(C(=O)c3c(F)cccc3F)c[nH]2)s1` [Example 40, 4-(2,6-difluorobenzoyl)-N-[(5-methyl-1,3,4-thiadiazol-2-yl)methyl]-1H-pyrrole-2-carboxamide], for which the IC50 at p38-α was 150 nM.

With `O=C(NCc1nnc(-c2ccccn2)s1)c1cc(Cc2c(F)cc(F)cc2F)c[nH]1` [Example 44, N-[(5-pyridin-2-yl-1,3,4-thiadiazol-2-yl)methyl]-4-(2,4,6-trifluorobenzyl)-1H-pyrrole-2-carboxamide], the IC50 at p38-α was 555 nM.

By IC50 is commonly meant the point on the concentration scale where inhibition reaches its midpoint.

(Values after patent publication US8513289B2, “P38 kinase inhibiting agents” (Merck Sharp & Dohme Corp., priority 2009, dated 2013).)
